Measurements reported in US7063946B2, “Methods, reagents, kits and apparatus for protein function analysis” (Meso Scale Technologies, LLC., priority 2001, dated 2006).

Legend:
Assay in all cases: Kinase inhibitor profiling, autophosphorylation
Format in all cases: biochemical
BMX = target: T1, BMX (Homo sapiens, UniProt P51813)
T1 construct: specificity data for proteins generated from a library of eighteen full-length clones; host or cells: rabbit reticulocyte lysate, TnT coupled in vitro transcription/translation (cell-free)
T1 sequence (P51813 1-675): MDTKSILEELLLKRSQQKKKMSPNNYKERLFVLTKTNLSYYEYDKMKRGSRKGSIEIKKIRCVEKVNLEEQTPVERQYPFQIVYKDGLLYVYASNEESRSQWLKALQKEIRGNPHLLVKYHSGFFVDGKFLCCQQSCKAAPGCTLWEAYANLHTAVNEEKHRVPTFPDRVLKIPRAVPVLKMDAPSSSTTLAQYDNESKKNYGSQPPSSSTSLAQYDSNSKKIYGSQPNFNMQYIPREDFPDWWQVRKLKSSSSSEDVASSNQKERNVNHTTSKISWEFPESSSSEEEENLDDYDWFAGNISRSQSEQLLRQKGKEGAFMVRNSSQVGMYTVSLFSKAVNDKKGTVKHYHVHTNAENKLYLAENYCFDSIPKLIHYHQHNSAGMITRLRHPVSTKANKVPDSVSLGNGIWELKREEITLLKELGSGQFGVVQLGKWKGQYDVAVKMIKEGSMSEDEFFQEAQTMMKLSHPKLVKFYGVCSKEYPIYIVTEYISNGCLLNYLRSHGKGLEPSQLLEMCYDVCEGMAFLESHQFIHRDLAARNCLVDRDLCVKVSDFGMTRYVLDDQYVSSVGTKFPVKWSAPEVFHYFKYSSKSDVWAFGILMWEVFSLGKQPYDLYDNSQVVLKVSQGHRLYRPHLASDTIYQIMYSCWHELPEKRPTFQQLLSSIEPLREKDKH

CSK = target: T2, CSK (Homo sapiens, UniProt P41240)
T2 construct: specificity data for proteins generated from a library of eighteen full-length clones; host or cells: rabbit reticulocyte lysate, TnT coupled in vitro transcription/translation (cell-free)
T2 sequence (P41240 whole entry): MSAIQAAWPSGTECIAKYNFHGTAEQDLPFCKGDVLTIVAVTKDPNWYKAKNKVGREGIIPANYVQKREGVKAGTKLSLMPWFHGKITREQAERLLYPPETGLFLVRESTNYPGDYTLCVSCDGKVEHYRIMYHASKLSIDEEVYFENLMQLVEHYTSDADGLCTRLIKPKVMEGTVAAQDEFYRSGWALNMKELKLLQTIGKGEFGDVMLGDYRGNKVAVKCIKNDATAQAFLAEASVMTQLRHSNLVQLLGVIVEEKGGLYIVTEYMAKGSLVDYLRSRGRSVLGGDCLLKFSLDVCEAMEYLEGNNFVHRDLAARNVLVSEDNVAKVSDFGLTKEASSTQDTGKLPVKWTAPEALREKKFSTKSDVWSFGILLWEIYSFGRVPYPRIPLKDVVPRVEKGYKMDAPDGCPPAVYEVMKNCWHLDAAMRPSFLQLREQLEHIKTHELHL

FGFR1 = target: T3, FGFR1 (Homo sapiens, UniProt P11362)
T3 construct: specificity data for proteins generated from a library of eighteen full-length clones; host or cells: rabbit reticulocyte lysate, TnT coupled transcription/translation
T3 sequence (P11362 22-822): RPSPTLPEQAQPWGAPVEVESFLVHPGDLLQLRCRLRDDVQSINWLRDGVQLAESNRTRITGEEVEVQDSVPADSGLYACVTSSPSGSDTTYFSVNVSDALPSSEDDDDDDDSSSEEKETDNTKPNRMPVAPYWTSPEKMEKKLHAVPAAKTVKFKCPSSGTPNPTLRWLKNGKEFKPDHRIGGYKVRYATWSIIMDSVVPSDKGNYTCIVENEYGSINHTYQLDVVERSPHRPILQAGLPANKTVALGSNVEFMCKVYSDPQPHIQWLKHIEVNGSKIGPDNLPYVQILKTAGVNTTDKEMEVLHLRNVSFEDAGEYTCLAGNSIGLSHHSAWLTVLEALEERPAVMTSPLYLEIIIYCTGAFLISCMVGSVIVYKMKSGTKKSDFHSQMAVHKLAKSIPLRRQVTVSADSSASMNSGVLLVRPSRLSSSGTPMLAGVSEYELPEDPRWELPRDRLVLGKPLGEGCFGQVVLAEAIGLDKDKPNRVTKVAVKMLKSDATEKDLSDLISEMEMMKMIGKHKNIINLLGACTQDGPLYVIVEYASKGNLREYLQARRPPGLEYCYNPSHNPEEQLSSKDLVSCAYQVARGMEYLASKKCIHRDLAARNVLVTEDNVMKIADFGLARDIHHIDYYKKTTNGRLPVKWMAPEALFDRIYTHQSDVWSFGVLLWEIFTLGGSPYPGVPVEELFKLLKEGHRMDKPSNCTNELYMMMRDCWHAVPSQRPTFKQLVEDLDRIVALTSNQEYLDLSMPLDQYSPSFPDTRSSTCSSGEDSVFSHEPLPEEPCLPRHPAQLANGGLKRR

FGFR2 = target: T4, FGFR2 (Mus musculus, UniProt P21803)
T4 construct: specificity data for proteins generated from a library of eighteen full-length clones; host or cells: rabbit reticulocyte lysate, TnT coupled in vitro transcription/translation (cell-free)
T4 sequence (P21803 22-821): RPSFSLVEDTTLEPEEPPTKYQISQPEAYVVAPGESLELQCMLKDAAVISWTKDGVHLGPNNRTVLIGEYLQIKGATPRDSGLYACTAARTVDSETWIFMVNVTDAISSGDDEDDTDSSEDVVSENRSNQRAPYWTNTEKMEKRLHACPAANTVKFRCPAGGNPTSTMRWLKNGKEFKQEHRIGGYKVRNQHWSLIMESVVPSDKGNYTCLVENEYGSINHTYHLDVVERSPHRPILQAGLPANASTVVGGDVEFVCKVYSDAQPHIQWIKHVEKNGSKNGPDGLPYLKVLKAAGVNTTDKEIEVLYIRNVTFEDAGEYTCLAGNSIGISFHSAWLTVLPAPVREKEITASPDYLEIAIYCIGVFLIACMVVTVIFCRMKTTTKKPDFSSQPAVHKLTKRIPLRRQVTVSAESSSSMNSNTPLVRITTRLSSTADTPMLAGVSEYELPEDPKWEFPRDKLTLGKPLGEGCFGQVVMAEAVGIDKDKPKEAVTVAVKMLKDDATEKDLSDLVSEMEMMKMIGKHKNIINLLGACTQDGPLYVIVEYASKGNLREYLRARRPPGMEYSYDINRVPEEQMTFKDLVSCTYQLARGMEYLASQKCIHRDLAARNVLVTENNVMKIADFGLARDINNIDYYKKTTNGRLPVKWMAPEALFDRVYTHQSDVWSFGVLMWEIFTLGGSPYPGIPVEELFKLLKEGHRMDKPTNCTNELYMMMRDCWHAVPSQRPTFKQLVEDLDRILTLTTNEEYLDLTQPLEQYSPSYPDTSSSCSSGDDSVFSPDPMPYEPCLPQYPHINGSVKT

HCK = target: T5, HCK (Homo sapiens, UniProt P08631)
T5 construct: specificity data for proteins generated from a library of eighteen full-length clones; host or cells: rabbit reticulocyte lysate, TnT coupled in vitro transcription/translation (cell-free)
T5 sequence (P08631 whole entry): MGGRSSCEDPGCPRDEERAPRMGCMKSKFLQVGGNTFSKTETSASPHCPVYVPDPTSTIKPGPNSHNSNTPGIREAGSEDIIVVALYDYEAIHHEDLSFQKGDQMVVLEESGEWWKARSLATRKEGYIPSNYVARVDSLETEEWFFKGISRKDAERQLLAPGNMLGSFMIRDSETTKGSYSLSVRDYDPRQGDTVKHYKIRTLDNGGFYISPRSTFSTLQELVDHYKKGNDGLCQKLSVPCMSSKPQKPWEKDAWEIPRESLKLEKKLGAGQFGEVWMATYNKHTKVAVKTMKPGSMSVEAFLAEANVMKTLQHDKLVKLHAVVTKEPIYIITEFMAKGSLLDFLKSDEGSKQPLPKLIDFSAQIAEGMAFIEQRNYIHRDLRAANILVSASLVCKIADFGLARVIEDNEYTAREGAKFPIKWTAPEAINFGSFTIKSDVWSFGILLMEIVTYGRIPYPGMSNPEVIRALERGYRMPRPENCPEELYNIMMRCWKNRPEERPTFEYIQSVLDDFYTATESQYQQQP

PTK2B = target: T6, PTK2B (Homo sapiens, UniProt Q14289)
T6 construct: specificity data for proteins generated from a library of eighteen full-length clones; host or cells: rabbit reticulocyte lysate, TnT coupled in vitro transcription/translation (cell-free)
T6 sequence (Q14289 whole entry): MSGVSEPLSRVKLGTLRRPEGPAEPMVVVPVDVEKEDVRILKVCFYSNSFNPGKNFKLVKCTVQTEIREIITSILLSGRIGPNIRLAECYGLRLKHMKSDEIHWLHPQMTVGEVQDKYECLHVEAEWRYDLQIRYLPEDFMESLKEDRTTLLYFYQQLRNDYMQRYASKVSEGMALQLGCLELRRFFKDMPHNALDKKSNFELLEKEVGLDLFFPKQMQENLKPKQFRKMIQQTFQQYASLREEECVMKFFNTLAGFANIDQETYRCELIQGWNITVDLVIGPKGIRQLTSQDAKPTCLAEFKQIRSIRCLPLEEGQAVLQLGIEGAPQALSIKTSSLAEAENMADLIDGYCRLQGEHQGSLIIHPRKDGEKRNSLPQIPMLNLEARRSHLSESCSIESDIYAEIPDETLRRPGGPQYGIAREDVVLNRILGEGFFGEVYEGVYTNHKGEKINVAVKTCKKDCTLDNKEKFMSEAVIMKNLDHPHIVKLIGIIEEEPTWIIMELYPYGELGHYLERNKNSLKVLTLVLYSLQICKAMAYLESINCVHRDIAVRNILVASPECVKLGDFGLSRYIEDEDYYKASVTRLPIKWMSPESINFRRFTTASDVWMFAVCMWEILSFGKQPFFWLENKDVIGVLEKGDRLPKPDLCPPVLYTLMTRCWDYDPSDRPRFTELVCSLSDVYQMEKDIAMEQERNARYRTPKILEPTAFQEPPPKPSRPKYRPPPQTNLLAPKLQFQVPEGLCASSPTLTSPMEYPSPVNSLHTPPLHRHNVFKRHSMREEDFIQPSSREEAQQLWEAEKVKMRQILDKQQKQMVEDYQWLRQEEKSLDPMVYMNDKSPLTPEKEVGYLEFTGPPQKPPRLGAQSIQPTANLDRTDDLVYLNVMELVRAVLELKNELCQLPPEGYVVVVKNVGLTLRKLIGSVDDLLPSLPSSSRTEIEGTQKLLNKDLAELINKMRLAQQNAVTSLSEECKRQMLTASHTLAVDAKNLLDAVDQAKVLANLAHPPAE

SYK = target: T7, SYK (Homo sapiens, UniProt P43405)
T7 construct: autophosphorylation activity from full-length clones Spleen Tyrosine Kinase (SYK) and Eph receptor-A7 (EphA7); host or cells: rabbit reticulocyte lysate, TnT coupled in vitro transcription/translation (cell-free)

Tek = target: T8, Tek (Mus musculus, UniProt Q02858)
T8 construct: specificity data for proteins generated from a library of eighteen full-length clones; host or cells: rabbit reticulocyte lysate, TnT coupled in vitro transcription/translation (cell-free)
T8 sequence (Q02858 23-1122): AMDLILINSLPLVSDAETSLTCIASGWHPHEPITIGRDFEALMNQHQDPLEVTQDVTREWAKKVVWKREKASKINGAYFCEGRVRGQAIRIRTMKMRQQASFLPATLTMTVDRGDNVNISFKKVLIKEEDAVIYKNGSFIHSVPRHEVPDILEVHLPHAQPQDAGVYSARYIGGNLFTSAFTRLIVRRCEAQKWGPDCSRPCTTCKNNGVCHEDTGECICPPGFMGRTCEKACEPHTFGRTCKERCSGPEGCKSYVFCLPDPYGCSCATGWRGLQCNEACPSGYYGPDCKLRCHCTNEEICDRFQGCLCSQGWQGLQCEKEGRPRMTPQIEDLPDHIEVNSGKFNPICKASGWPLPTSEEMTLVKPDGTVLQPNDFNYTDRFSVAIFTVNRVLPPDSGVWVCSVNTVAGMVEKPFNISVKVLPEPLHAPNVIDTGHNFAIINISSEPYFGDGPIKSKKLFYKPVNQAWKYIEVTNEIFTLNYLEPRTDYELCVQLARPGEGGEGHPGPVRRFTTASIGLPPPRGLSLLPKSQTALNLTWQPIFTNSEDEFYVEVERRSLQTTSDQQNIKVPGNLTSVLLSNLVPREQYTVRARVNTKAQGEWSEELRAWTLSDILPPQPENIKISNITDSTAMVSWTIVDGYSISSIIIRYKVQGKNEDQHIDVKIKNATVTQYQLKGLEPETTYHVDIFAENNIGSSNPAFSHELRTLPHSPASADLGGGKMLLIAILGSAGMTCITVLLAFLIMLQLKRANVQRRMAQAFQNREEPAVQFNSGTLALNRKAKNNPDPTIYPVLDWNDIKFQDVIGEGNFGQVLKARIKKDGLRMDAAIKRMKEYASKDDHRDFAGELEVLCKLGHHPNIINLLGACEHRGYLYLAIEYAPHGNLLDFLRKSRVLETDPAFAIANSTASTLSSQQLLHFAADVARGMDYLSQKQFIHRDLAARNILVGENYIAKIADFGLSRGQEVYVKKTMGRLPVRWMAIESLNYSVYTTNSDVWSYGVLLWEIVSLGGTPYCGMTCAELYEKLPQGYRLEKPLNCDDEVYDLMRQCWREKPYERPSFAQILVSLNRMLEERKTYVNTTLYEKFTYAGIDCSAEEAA

Fert2 = target: T9, Fert2 (Mus musculus, UniProt P70451)
T9 construct: specificity data for proteins generated from a library of eighteen full-length clones; host or cells: rabbit reticulocyte lysate, TnT coupled transcription/translation

Row | Molecule | Inhibition specificity towards Autophosphorylation at 10X IC50, BMX (BMX) | Inhibition specificity towards Autophosphorylation at 10X IC50, CSK (CSK) | Inhibition specificity towards Autophosphorylation at 10X IC50, FGFR1 (FGFR1) | Inhibition specificity towards Autophosphorylation at 10X IC50, FGFR2 (FGFR2) | Inhibition specificity towards Autophosphorylation at 10X IC50, HCK (HCK) | Inhibition specificity towards Autophosphorylation at 10X IC50, PTK2B (PTK2B) | Inhibition specificity towards Autophosphorylation at 10X IC50, SYK (SYK) | Inhibition specificity towards Autophosphorylation at 10X IC50, Tek (Tek) | Inhibition specificity towards Autophosphorylation at 10X IC50, Fert2 (Fert2)
1 | COC(=O)c1ccc(NCc2cc(O)ccc2O)cc1 [AG-957] | L (low inhibition (“L”=between 50–75% of the activity remaining)) | L (low inhibition (“L”=between 50–75% of the activity remaining)) | L (low inhibition (“L”=between 50–75% of the activity remaining)) | L (low inhibition (“L”=between 50–75% of the activity remaining)) | L (low inhibition (“L”=between 50–75% of the activity remaining)) | L (low inhibition (“L”=between 50–75% of the activity remaining)) | L (low inhibition (“L”=between 50–75% of the activity remaining)) | M (medium inhibition (“M”=between 25 to 50% of the activity remaining)) | 
2 | CC(C)(C)c1cc(C=C(C#N)C#N)cc(Br)c1O [AG-1024] |  |  |  | L (low inhibition (“L”=between 50–75% of the activity remaining)) |  |  |  | M (medium inhibition (“M”=between 25 to 50% of the activity remaining)) | 
3 | Cc1cc2ncc(-c3ccc(O)c(O)c3)nc2cc1C [AG-1433] | H (high inhibition (“H”=less than 25% of the activity remaining)) | H (high inhibition (“H”=less than 25% of the activity remaining)) | H (high inhibition (“H”=less than 25% of the activity remaining)) | H (high inhibition (“H”=less than 25% of the activity remaining)) | H (high inhibition (“H”=less than 25% of the activity remaining)) | H (high inhibition (“H”=less than 25% of the activity remaining)) | H (high inhibition (“H”=less than 25% of the activity remaining)) | H (high inhibition (“H”=less than 25% of the activity remaining)) | H (high inhibition (“H”=less than 25% of the activity remaining))
4 | COc1c(C=O)c(O)cc2c1C(=O)c1ccccc1C2=O [Damnacanthal] | H (high inhibition (“H”=less than 25% of the activity remaining)) | M (medium inhibition (“M”=between 25 to 50% of the activity remaining)) | M (medium inhibition (“M”=between 25 to 50% of the activity remaining)) | M (medium inhibition (“M”=between 25 to 50% of the activity remaining)) | M (medium inhibition (“M”=between 25 to 50% of the activity remaining)) | M (medium inhibition (“M”=between 25 to 50% of the activity remaining)) | M (medium inhibition (“M”=between 25 to 50% of the activity remaining)) | H (high inhibition (“H”=less than 25% of the activity remaining)) | L (low inhibition (“L”=between 50–75% of the activity remaining))
5 | Erbstatin analog | L (low inhibition (“L”=between 50–75% of the activity remaining)) |  |  | L (low inhibition (“L”=between 50–75% of the activity remaining)) | L (low inhibition (“L”=between 50–75% of the activity remaining)) | L (low inhibition (“L”=between 50–75% of the activity remaining)) | L (low inhibition (“L”=between 50–75% of the activity remaining)) | L (low inhibition (“L”=between 50–75% of the activity remaining)) | L (low inhibition (“L”=between 50–75% of the activity remaining))
